Source: PubChem BioAssay (NCI)
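Abbreviation: GI50, concentration required for 50% inhibition of growth. TGI denotes the concentration required for complete inhibition of growth.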

What was measured:
Experiment in all cases: NCI tumour cell line growth inhibition, 384-well format
[1] = test system: MOLT-4 leukemia
[2] = test system: RPMI-8226 leukemia
[3] = test system: HCT-116 colon
[4] = test system: OVCAR-4 ovarian
[5] = test system: MCF7 breast
[6] = test system: EKVX NSCLC
[7] = test system: HOP-92 NSCLC
[8] = test system: COLO 205 colon
[9] = test system: SK-MEL-5 melanoma
[10] = test system: NCI-H460 NSCLC
[11] = test system: MDA-MB-231 breast
[12] = test system: HT29 colon
[13] = test system: SF-268 CNS
[14] = test system: M14 melanoma
[15] = test system: NCI-H23 lung
[16] = test system: SK-MEL-28 melanoma
[17] = test system: UO-31 renal
[18] = test system: MDA-MB-435 melanoma
[19] = test system: SF-539 CNS
[20] = test system: SN12C renal
[21] = test system: OVCAR-3 ovarian
[22] = test system: SNB-19 CNS
[23] = test system: UACC-62 melanoma
[24] = test system: TK-10 renal
[25] = test system: A498 renal
[26] = test system: NCI-H226 lung
[27] = test system: OVCAR-8 ovarian
[28] = test system: CCRF-CEM leukemia
[29] = test system: SF-295 CNS
[30] = test system: RXF 393 renal
[31] = test system: K-562 leukemia
[32] = test system: SNB-75 CNS
[33] = test system: SW-620 colon
[34] = test system: HS 578T breast
[35] = test system: CAKI-1 renal
[36] = test system: HL-60(TB) leukemia
[37] = test system: 786-0 renal
[38] = test system: OVCAR-5 ovarian
[39] = test system: NCI-H322M lung
[40] = test system: BT-549 breast
[41] = test system: SK-MEL-2 melanoma
[42] = test system: A549 NSCLC
[43] = test system: ACHN renal
[44] = test system: IGROV1 ovarian
[45] = test system: UACC-257 melanoma
[46] = test system: HOP-62 NSCLC
[47] = test system: T-47D breast
[48] = test system: MDA-MB-468 breast
[49] = test system: KM12 colon
[50] = test system: DU-145 prostate
[51] = test system: U251 glioblastoma
[52] = test system: SK-OV-3 ovarian
[53] = test system: HCC-2998 colon
[54] = test system: NCI-H522 lung
[55] = test system: HCT-15 colon
[56] = test system: MALME-3M melanoma
[57] = test system: PC-3 prostate
[58] = test system: NCI/ADR-RES ovarian
[59] = test system: LOX IMVI melanoma

Compound: CC(C)NC[C@@H](C(=O)N1CCN(c2ncnc3c2[C@H](C)C[C@H]3O)CC1)c1ccc(Cl)cc1
- GI50 [1]: 0.259 µM
- TGI [1]: 1.77 µM
- GI50 [2]: 10.5 µM
- TGI [2]: 23.9 µM
- GI50 [3]: 18.2 µM
- TGI [3]: 96.8 µM
- GI50 [4]: 76.8 µM
- TGI [4]: > 100 µM
- GI50 [5]: 0.919 µM
- TGI [5]: 15.5 µM
- GI50 [6]: 10.6 µM
- TGI [6]: 52.4 µM
- GI50 [7]: 11.7 µM
- TGI [7]: 46.1 µM
- GI50 [8]: 4.88 µM
- TGI [8]: 24.5 µM
- GI50 [9]: 12 µM
- TGI [9]: 25.2 µM
- GI50 [10]: 1.31 µM
- TGI [10]: > 100 µM
- GI50 [11]: 44.9 µM
- TGI [11]: > 100 µM
- GI50 [12]: 15.1 µM
- TGI [12]: 52.5 µM
- GI50 [13]: 29.6 µM
- TGI [13]: > 100 µM
- GI50 [14]: 14.4 µM
- TGI [14]: 34 µM
- GI50 [15]: 16.2 µM
- TGI [15]: 57.1 µM
- GI50 [16]: 11.4 µM
- TGI [16]: 41.7 µM
- GI50 [17]: 35 µM
- TGI [17]: > 100 µM
- GI50 [18]: 23.9 µM
- TGI [18]: > 100 µM
- GI50 [19]: 0.587 µM
- TGI [19]: 22.5 µM
- GI50 [20]: 23.8 µM
- TGI [20]: > 100 µM
- GI50 [21]: 10.5 µM
- TGI [21]: 64.5 µM
- GI50 [22]: 7.47 µM
- TGI [22]: > 100 µM
- GI50 [23]: 10.9 µM
- TGI [23]: 30.4 µM
- GI50 [24]: 5.49 µM
- TGI [24]: 36.9 µM
- GI50 [25]: 0.589 µM
- TGI [25]: 11.3 µM
- GI50 [26]: 21.2 µM
- TGI [26]: > 100 µM
- GI50 [27]: 45.9 µM
- TGI [27]: > 100 µM
- GI50 [28]: 0.854 µM
- TGI [28]: 12 µM
- GI50 [29]: 2.19 µM
- TGI [29]: 32.7 µM
- GI50 [30]: 0.3 µM
- TGI [30]: 4.41 µM
- GI50 [31]: 25.4 µM
- TGI [31]: > 100 µM
- GI50 [32]: 0.676 µM
- TGI [32]: 15.3 µM
- GI50 [33]: 49.9 µM
- TGI [33]: > 100 µM
- GI50 [34]: 0.771 µM
- TGI [34]: 14.6 µM
- GI50 [35]: 11.7 µM
- TGI [35]: 75.5 µM
- GI50 [36]: 17.3 µM
- TGI [36]: 31.2 µM
- GI50 [37]: 1.49 µM
- TGI [37]: 21 µM
- GI50 [38]: 18.4 µM
- TGI [38]: > 100 µM
- GI50 [39]: 18.4 µM
- TGI [39]: > 100 µM
- GI50 [40]: 0.636 µM
- TGI [40]: 11.8 µM
- GI50 [41]: 11.2 µM
- TGI [41]: 24.5 µM
- GI50 [42]: 18.2 µM
- TGI [42]: > 100 µM
- GI50 [43]: 25.1 µM
- TGI [43]: > 100 µM
- GI50 [44]: 0.235 µM
- TGI [44]: 2.69 µM
- GI50 [45]: 14 µM
- TGI [45]: 27.1 µM
- GI50 [46]: 34.1 µM
- TGI [46]: > 100 µM
- GI50 [47]: 0.119 µM
- TGI [47]: 0.857 µM
- GI50 [48]: 0.494 µM
- TGI [48]: 4.16 µM
- GI50 [49]: 1.45 µM
- TGI [49]: 18.8 µM
- GI50 [50]: 25.8 µM
- TGI [50]: > 100 µM
- GI50 [51]: 10.2 µM
- TGI [51]: > 100 µM
- GI50 [52]: 0.912 µM
- TGI [52]: 23.6 µM
- GI50 [53]: 3.41 µM
- TGI [53]: 24.1 µM
- GI50 [54]: 17 µM
- TGI [54]: 49.3 µM
- GI50 [55]: 26.2 µM
- TGI [55]: > 100 µM
- GI50 [56]: 7.94 µM
- TGI [56]: 21.6 µM
- GI50 [57]: 1.07 µM
- TGI [57]: 35.4 µM
- GI50 [58]: > 100 µM
- TGI [58]: > 100 µM
- GI50 [59]: 34.5 µM
- TGI [59]: > 100 µM
